Consider two compounds from patent EP0796041B1, “NEW HERBICIDAL COMPOSITIONS” (RHONE-POULENC AGRO, priority 1994, dated 1996).

Assay in all cases: Field trial Europe (Experiment A1), pre-emergence weed control in maize
Common to all, as to assay type: in vivo

The subject of experiment [1] is Amaranthus retroflexus. As to conditions: ALZONNE, 46DAT. On the procedure: (§1) The following experiments were conducted on Compound A and Compound B in various field research stations in Europe during May. Compound A (as a 750 g/kg water dispersible granule formulation) and Compound B (as a 600 g/kg water dispersible granule formulation) were tested at the following dose rates (note that hereafter ai means active ingredient): Compound A : 50, 75, 100, 125 g ai/ha Compound B : 240, 360, 480, 600 g ai/ha Compound A + Compound B : 50 + 240/360/480 g ai/ha 75 + 240/360/480 g ai/ha 100 + 240/360/480 g ai/ha Trial and application conditions are given below in Table 1 (in the Tables that follow DAT means days after treatment): Table 1 [table] Weeds were drilled on the same day as maize. All trials were sprayed pre-emergence of the maize on the same day as drilling or within 2 days afterwards. Soil conditions were warm and wet, so that the crop and weeds emerged and grew quickly. Rainfall or irrigation occurred within 15 days of application. In this Table "Obs" is the observed value the value in brackets (Exp) is the expected value calculated using the Colby formula.

Experiment [2] deals with Echinochloa crus-galli. On the procedure: as §1
Experiment [3] deals with Polygonum lapathifolium. The following applies: CHAZAY, 64DAT. On the procedure: as §1
The test system of experiment [4] is Setaria viridis. The following applies: BOLOGNA, 54DAT. The protocol: as §1

In the case of `CS(=O)(=O)c1cc(C(F)(F)F)ccc1C(=O)c1cnoc1C1CC1` [Cpd A, 5-cyclopropyl-4-(2-methylsulphonyl-4-trifluoromethyl)benzoylisozaxole], the “percentage phytotoxicity Obs” value in experiment [1] (Cpd A 50 g a.i./ha) was 72%; in experiment [1] (Cpd A 75 g a.i./ha), 70%; in experiment [1] (Cpd A 100 g a.i./ha) it was 80%; in experiment [1] (Cpd A 125 g a.i./ha), 95%; in experiment [2] (ALZONNE, 46DAT, Cpd A 50 g a.i./ha) it was 45%; in experiment [2] (ALZONNE, 46DAT, Cpd A 75 g a.i./ha) it was 35%. Moreover, the “percentage phytotoxicity Obs” value in experiment [2] (ALZONNE, 46DAT, Cpd A 100 g a.i./ha) is 82%; in experiment [2] (ALZONNE, 46DAT, Cpd A 125 g a.i./ha), 85%; in experiment [2] (BOLOGNA, 54DAT, Cpd A 50 g a.i./ha) it was 77%; in experiment [2] (BOLOGNA, 54DAT, Cpd A 75 g a.i./ha), 91%; in experiment [2] (BOLOGNA, 54DAT, Cpd A 100 g a.i./ha) it was 75%; in experiment [2] (BOLOGNA, 54DAT, Cpd A 125 g a.i./ha), 100%. Besides, the “percentage phytotoxicity Obs” value came out at 50% in experiment [3] (Cpd A 50 g a.i./ha); 90% in experiment [3] (Cpd A 75 g a.i./ha); 70% in experiment [3] (Cpd A 100 g a.i./ha); 95% in experiment [3] (Cpd A 125 g a.i./ha); 62% in experiment [4] (Cpd A 50 g a.i./ha); 82% in experiment [4] (Cpd A 75 g a.i./ha). For the same compound, the results for the “percentage phytotoxicity Obs” value in experiment [4] (Cpd A 100 g a.i./ha) and in experiment [4] (Cpd A 125 g a.i./ha) were 82% and 97%, respectively.

With `CC(C)N(C(=O)COc1nnc(C(F)(F)F)s1)c1ccc(F)cc1` [Cpd B, N-isopropyl-(5-trifluoromethyl-1,3,4-thiadiazol-2-yl)-4-(4'-fluoro-oxyacetanilide)], the “percentage phytotoxicity Obs” value was 30% in experiment [1] (Cpd B 240 g a.i./ha); 10% in experiment [1] (Cpd B 360 g a.i./ha); 67% in experiment [1] (Cpd B 480 g a.i./ha); 45% in experiment [1] (Cpd B 600 g a.i./ha); 45% in experiment [2] (ALZONNE, 46DAT, Cpd B 240 g a.i./ha); 65% in experiment [2] (ALZONNE, 46DAT, Cpd B 360 g a.i./ha). Moreover, the “percentage phytotoxicity Obs” value in experiment [2] (ALZONNE, 46DAT, Cpd B 480 g a.i./ha) came to 77%; in experiment [2] (ALZONNE, 46DAT, Cpd B 600 g a.i./ha), 90%; in experiment [2] (BOLOGNA, 54DAT, Cpd B 240 g a.i./ha) it was 35%; in experiment [2] (BOLOGNA, 54DAT, Cpd B 360 g a.i./ha), 52%; in experiment [2] (BOLOGNA, 54DAT, Cpd B 480 g a.i./ha), 65%; in experiment [2] (BOLOGNA, 54DAT, Cpd B 600 g a.i./ha) it was 75%. Moreover, the “percentage phytotoxicity Obs” value was found to be 25% in experiment [3] (Cpd B 240 g a.i./ha); 0% in experiment [3] (Cpd B 360 g a.i./ha); 25% in experiment [3] (Cpd B 480 g a.i./ha); 40% in experiment [3] (Cpd B 600 g a.i./ha); 85% in experiment [4] (Cpd B 240 g a.i./ha); 82% in experiment [4] (Cpd B 360 g a.i./ha). Moreover, the “percentage phytotoxicity Obs” value was determined as 86% in experiment [4] (Cpd B 480 g a.i./ha) and 82% in experiment [4] (Cpd B 600 g a.i./ha).
